The results in this text go back to PubChem BioAssay AID1117347 (Cheminformatics & Chemogenomics Research Group (CCRG), …, 2015).

Several values for one entry are separate records, joined by “and”; a condition that tells them apart may be missing. Equal values may be shown once. Activity calls are given as the source filed them. How the calls were made is not given here.

In the assay the test system is HeLa cell count decrease. Kind of assay: decrease in HeLa cell numbers, dose-response curve, cell enumeration, 50% inhibitory concentration (AID 1117347).
Turning to `CC(C)=CCOc1ccc(/C=C/C(=O)c2ccc(OCC=C(C)C)cc2OCC(=O)O)cc1`, the IC50 (commonly the concentration at which inhibition is half-maximal) was > 10000 nM (inactive).

Regarding `O=C(Nc1ccc([N+](=O)[O-])cc1Cl)c1cc(Cl)ccc1O`, the IC50 was 144 nM.

Turning to `Cc1ccc2nc(N)[nH]c(=O)c2c1Sc1ccncc1`, the IC50 is > 10000 nM (inactive).

For the molecule `COc1ccc2cc3[n+](cc2c1OC)CCc1cc2c(cc1-3)OCO2`, the IC50 is > 10000 nM (inactive).

As for `CC[C@@H]([C@H](C)O)n1ncn(-c2ccc(N3CCN(c4ccc(OC[C@@H]5CO[C@@](Cn6cncn6)(c6ccc(F)cc6F)C5)cc4)CC3)cc2)c1=O`, the IC50 was > 10000 nM (inactive).

`CC(C)OC(=O)OCOP(=O)(CO[C@H](C)Cn1cnc2c(N)ncnc21)OCOC(=O)OC(C)C`: the IC50 was 289 nM.

`C[C@@]12C(=O)OC(=O)[C@]1(C)C1CCC2O1`: the IC50 was 1010 nM.

For `CCCCCCNC(=O)n1cc(F)c(=O)[nH]c1=O`, the IC50 is > 10000 nM (inactive).

On to `OC[C@H]1O[C@@H](n2cnc3c(=S)nc[nH]c32)[C@H](O)[C@@H]1O`, for which the IC50 was > 10000 nM (inactive).

For `Oc1ccc([C@H]2CNCc3c2ccc(O)c3O)cc1O`, the IC50 was > 10000 nM (inactive).

Consider `CO[C@@]12[C@H](COC(N)=O)C3=C(C(=O)C(C)=C(N)C3=O)N1C[C@@H]1N[C@@H]12`, for which the IC50 is 77.3 nM.

With `CCCCC(CC)CN=C(N)NC(N)=NCCCCCCN=C(N)NC(N)=NCC(CC)CCCC` (configuration not stated), the IC50 is 18.6 nM.

With `COc1ccc(Cc2nccc3cc(OC)c(OC)cc23)cc1OC`, the IC50 was > 10000 nM (inactive).

As to `CC(CC1c2ccccc2CCc2ccccc21)CN(C)C` (configuration not stated), the IC50 is > 10000 nM (inactive).

As to `CCCCCCCCCCCCCCCC[N+](C)(C)Cc1ccccc1`, the IC50 is > 10000 nM (inactive).

In the case of `COc1cccc2c1C(=O)c1c(O)c3c(c(O)c1C2=O)C[C@@](O)(C(C)=O)C[C@@H]3O[C@H]1C[C@H](N)[C@H](O)[C@H](C)O1`, the half-inhibitory concentration (IC50) is 8.05 nM.

With `O=C(O)CCCc1ccc(N(CCCl)CCCl)cc1`, the IC50 was > 10000 nM (inactive).

As to `Clc1ccc(Nc2nnc(Cc3ccncc3)c3ccccc23)cc1`, the IC50 is > 10000 nM (inactive).

For `CC[C@H](C)C(=O)O[C@H]1C[C@@H](C)C=C2C=C[C@H](C)[C@H](CC[C@@H]3C[C@@H](O)CC(=O)O3)[C@H]21`, the IC50 is > 10000 nM (inactive).

`CCCCOC(=O)c1ccc(N)cc1`: the IC50 was > 10000 nM (inactive).

In the case of `CC(=O)N(O)CCCCCNC(=O)CCC(=O)N(O)CCCCCNC(=O)CCC(=O)N(O)CCCCCN`, the IC50 was > 10000 nM (inactive).

As to `O=C(CCl)c1ccc(Cl)cc1Cl`, the IC50 was 350 nM.

Consider `CCCCCCCCCCCC(=O)[O][Sn]([CH2]CCC)([CH2]CCC)[O]C(=O)CCCCCCCCCCC`, for which the IC50 is > 10000 nM (inactive).

On to `CC(C)C[C@H](NC(=O)[C@H](CCc1ccccc1)NC(=O)CN1CCOCC1)C(=O)N[C@@H](Cc1ccccc1)C(=O)N[C@@H](CC(C)C)C(=O)[C@@]1(C)CO1`, for which the IC50 is 9.9 nM.

With `O=C(CCBr)N1CCN(C(=O)CCBr)CC1`, the IC50 was > 10000 nM (inactive).

With `CCCCCCCCCCCCCCCCNc1ccc(C(=O)O)cc1`, the IC50 is > 10000 nM (inactive).

For `CN(C)CCOC(c1ccccc1)c1ccc(Br)cc1` (configuration not stated), the IC50 is > 10000 nM (inactive).

On to `COc1cc([C@@H]2c3cc4c(cc3[C@H](O)[C@H]3COC(=O)[C@H]23)OCO4)cc(OC)c1OC`, for which the IC50 was 4.8 nM.

`CC(=O)O[C@@]12CO[C@@H]1C[C@H](O)[C@@]1(C)C(=O)[C@H](O)C3=C(C)[C@@H](OC(=O)[C@H](O)[C@@H](NC(=O)OC(C)(C)C)c4ccccc4)C[C@@](O)([C@@H](OC(=O)c4ccccc4)[C@H]21)C3(C)C`: the IC50 is 1 nM.

`CN1CCCC(CC2c3ccccc3Sc3ccccc32)C1` (configuration not stated): the IC50 is > 10000 nM (inactive).

Consider `COc1cc(NC(C)CCCN)c2ncccc2c1` (configuration not stated), for which the IC50 was > 10000 nM (inactive).

Turning to `O=C1C2CC=CCC2C(=O)N1SC(Cl)(Cl)Cl` (configuration not stated), the IC50 is 1780 nM.

With `COc1ccc(-c2ccc3cc(C(=O)O)ccc3c2)cc1C12CC3CC(CC(C3)C1)C2`, the IC50 is 5490 nM (inactive).

As for `C=CC(=O)Nc1cc2c(Nc3ccc(F)c(Cl)c3)ncnc2cc1OCCCN1CCOCC1`, the IC50 was 2090 nM.

For `COCc1c(C(C)C)nc(C(C)C)c(/C=C/[C@@H](O)C[C@@H](O)CC(=O)O)c1-c1ccc(F)cc1`, the IC50 is > 10000 nM (inactive).

In the case of `O=c1[nH]c(=O)n([C@H]2C[C@H](O)[C@@H](CO)O2)cc1F`, the IC50 is > 10000 nM (inactive).

In the case of `CN1CC[C@H](c2c(O)cc(O)c3c(=O)cc(-c4ccccc4Cl)oc23)[C@H](O)C1`, the IC50 was 21.2 nM.

As for `COc1ccc(/C=C/C(=O)c2ccc(OC)cc2OC)cc1`, the concentration for half-maximal inhibition (IC50) is 708 nM.

For the molecule `Cc1ccc([N+](=O)[O-])[c]2c1[O][Hg]2`, the concentration for half-maximal inhibition (IC50) was 385 nM.

In the case of `Nc1nc(F)nc2c1ncn2[C@@H]1O[C@H](CO)[C@@H](O)[C@@H]1O`, the IC50 is > 10000 nM (inactive).

With `CCCCCCCCCCCCNCCNCCNCC(=O)O`, the IC50 was > 10000 nM (inactive).

`N[C@@H](Cc1ccc(N(CCCl)CCCl)cc1)C(=O)O`: the IC50 was 390 nM.

Turning to `Cc1c(C)c2c(c(C)c1O)CCC(C)(COc1ccc(CC3SC(=O)NC3=O)cc1)O2` (configuration not stated), the IC50 is > 10000 nM (inactive).

Regarding `O=C1c2c(O)cccc2Cc2cccc(O)c21`, the IC50 was > 10000 nM (inactive).

On to `CN(C)/N=N/c1nc[nH]c1C(N)=O`, for which the IC50 was > 10000 nM (inactive).

`CC[C@@]1(O)C(=O)OCc2c1cc1n(c2=O)Cc2cc3c(CN(C)C)c(O)ccc3nc2-1`: the IC50 was 9 nM.

As to `O=c1[nH]c(=O)n([C@H]2C[C@H](O)[C@@H](CO)O2)cc1Br`, the IC50 is > 10000 nM (inactive).

Take `O=C(Nc1ccc(Br)cc1)c1cc(Br)cc(Br)c1O`: the IC50 was > 10000 nM (inactive).

For `COC(=O)[C@H]1[C@H]2C[C@@H]3c4[nH]c5cc(OC)ccc5c4CCN3C[C@H]2C[C@@H](OC(=O)/C=C/c2ccc(O)c(OC)c2)[C@@H]1OC`, the IC50 was > 10000 nM (inactive).

Turning to `CC(=O)[C@]1(O)Cc2c(O)c3c(c(O)c2[C@@H](O[C@H]2C[C@H](N)[C@H](O)[C@H](C)O2)C1)C(=O)c1ccccc1C3=O`, the IC50 is 14.2 nM.

As to `C[C@@H]1C[C@@H]([C@H](O)CC2CC(=O)NC(=O)C2)C(=O)[C@@H](C)C1`, the IC50 was 542 nM.

Take `CCCCCCCCCCCC[N+](C)(C)Cc1ccccc1`: the IC50 was > 10000 nM (inactive).

`CN1CCC(Nc2ncc3ncnc(Nc4ccc(F)c(Cl)c4)c3n2)CC1`: the IC50 was > 10000 nM (inactive).

`NC(=NCCCCCCN=C(N)/N=C(\N)Nc1ccc(Cl)cc1)/N=C(\N)Nc1ccc(Cl)cc1`: the IC50 is 6710 nM (inactive).

As to `O=C1C(=O)c2ccccc2C(O)=C1C1CCC(c2ccc(Cl)cc2)CC1` (configuration not stated), the IC50 was > 10000 nM (inactive).

Turning to `COc1cc(-c2ccc(=O)[nH]n2)ccc1OC(F)F`, the IC50 is 9.2 nM.

As to `CC[C@]1(O)C[C@@H]2CN(CCc3c([nH]c4ccccc34)[C@@](C(=O)OC)(c3cc4c(cc3OC)N(C)[C@H]3[C@@](O)(C(=O)OC)[C@H](OC(C)=O)[C@]5(CC)C=CCN6CC[C@]43[C@@H]65)C2)C1`, the IC50 is 5.21 nM and 2.6 nM.

In the case of `NCCCC[C@H](N[C@@H](CCc1ccccc1)C(=O)O)C(=O)N1CCC[C@H]1C(=O)O`, the IC50 is > 10000 nM (inactive).

Take `CCCCCCCCCCCCCC[N+](C)(C)C`: the IC50 was 3320 nM.

For `CCCSc1ccc2nc(NC(=O)OC)[nH]c2c1`, the 50% inhibitory concentration (IC50) is 37.7 nM.

For `COC(=O)Nc1nc2ccc(S(=O)c3ccccc3)cc2[nH]1` (configuration not stated), the IC50 is 258 nM.

For the molecule `CCOc1ccc2nc3cc(N)ccc3c(N)c2c1`, the IC50 was 2110 nM.

As to `CCCCCCC[N+](CC)(CC)CCCCc1ccc(Cl)cc1`, the IC50 is > 10000 nM (inactive).

Turning to `Cc1cc(CC(C)CC(C)(C)C)n(O)c(=O)c1` (configuration not stated), the IC50 is 133 nM.

As for `C[C@]12CC[C@@H]3c4ccc(O)cc4CC[C@H]3[C@@H]1CC[C@@H]2OC(=O)CCC1CCCC1`, the IC50 was > 10000 nM (inactive).

With `NC(N)=NN=C(/C=C/c1ccc([N+](=O)[O-])o1)/C=C/c1ccc([N+](=O)[O-])o1`, the IC50 is > 10000 nM (inactive).

Regarding `CN(Cc1cnc2nc(N)nc(N)c2n1)c1ccc(C(=O)N[C@@H](CCC(=O)O)C(=O)O)cc1`, the IC50 is > 10000 nM (inactive).

For `COc1cc2c(c(OC)c1OC)-c1ccc(OC)c(=O)cc1[C@@H](NC(C)=O)CC2`, the IC50 is 1.88 nM.

Regarding `CC(=O)Oc1ccc(C2(c3ccc(OC(C)=O)cc3)Oc3ccccc3NC2=O)cc1`, the IC50 was 5750 nM (inactive).

On to `CCCCCCCCCCCCCCCC[N+](C)(C)CCN(Cc1ccc(OC)cc1)c1ncccn1`, for which the IC50 is 349 nM.

For the molecule `CCc1oc2ccccc2c1C(=O)c1cc(I)c(O)c(I)c1`, the IC50 is > 10000 nM (inactive).

In the case of `[O-][n+]1ccccc1SSc1cccc[n+]1[O-]`, the IC50 is 842 nM.

Turning to `CC(C)=CCNc1ncnc2c1ncn2[C@@H]1O[C@H](CO)[C@@H](O)[C@H]1O`, the IC50 was 995 nM.

`O=C(O)CN(CCN(CC(=O)O)CC(=O)O)CCN(CC(=O)O)CC(=O)O`: the IC50 was > 10000 nM (inactive).

Regarding `Nc1nc(=S)c2[nH]cnc2[nH]1`, the IC50 is > 10000 nM (inactive).

With `CCCCCCCCCCCCCCCCCCNC(=O)OC1CCN(C(=O)OC[C@H](COC(=O)N(Cc2cccc[n+]2CC)C(=O)c2ccccc2OC)OC)CC1`, the IC50 was 6140 nM (inactive).

As to `CCCCc1ccc2nc(NC(=O)OC)[nH]c2c1`, the IC50 was 5.66 nM.

For `CCCNCC(O)COc1ccccc1C(=O)CCc1ccccc1` (configuration not stated), the IC50 was > 10000 nM (inactive).

As for `COCCOC(=O)C1=C(C)NC(C)=C(C(=O)OC/C=C/c2ccccc2)C1c1cccc([N+](=O)[O-])c1` (configuration not stated), the IC50 is > 10000 nM (inactive).

As to `Oc1c(I)cc(Cl)c2cccnc12`, the IC50 is > 10000 nM (inactive).

Regarding `Cc1ccc(CCn2c3c(c4cc(Cl)ccc42)CN(C)CC3)cn1`, the IC50 is > 10000 nM (inactive).

As for `Cc1nc2ccc(CN(C)c3ccc(C(=O)N[C@@H](CCC(=O)O)C(=O)O)s3)cc2c(=O)[nH]1`, the IC50 is > 10000 nM (inactive).
